Experiments:
[1] = target: T1, AXL (Homo sapiens, UniProt P30530); assay: TR-FRET kinase activity assay, AXL; type: biochemical; conditions: ATP at Km, 60 minutes
T1 sequence (P30530 26-894): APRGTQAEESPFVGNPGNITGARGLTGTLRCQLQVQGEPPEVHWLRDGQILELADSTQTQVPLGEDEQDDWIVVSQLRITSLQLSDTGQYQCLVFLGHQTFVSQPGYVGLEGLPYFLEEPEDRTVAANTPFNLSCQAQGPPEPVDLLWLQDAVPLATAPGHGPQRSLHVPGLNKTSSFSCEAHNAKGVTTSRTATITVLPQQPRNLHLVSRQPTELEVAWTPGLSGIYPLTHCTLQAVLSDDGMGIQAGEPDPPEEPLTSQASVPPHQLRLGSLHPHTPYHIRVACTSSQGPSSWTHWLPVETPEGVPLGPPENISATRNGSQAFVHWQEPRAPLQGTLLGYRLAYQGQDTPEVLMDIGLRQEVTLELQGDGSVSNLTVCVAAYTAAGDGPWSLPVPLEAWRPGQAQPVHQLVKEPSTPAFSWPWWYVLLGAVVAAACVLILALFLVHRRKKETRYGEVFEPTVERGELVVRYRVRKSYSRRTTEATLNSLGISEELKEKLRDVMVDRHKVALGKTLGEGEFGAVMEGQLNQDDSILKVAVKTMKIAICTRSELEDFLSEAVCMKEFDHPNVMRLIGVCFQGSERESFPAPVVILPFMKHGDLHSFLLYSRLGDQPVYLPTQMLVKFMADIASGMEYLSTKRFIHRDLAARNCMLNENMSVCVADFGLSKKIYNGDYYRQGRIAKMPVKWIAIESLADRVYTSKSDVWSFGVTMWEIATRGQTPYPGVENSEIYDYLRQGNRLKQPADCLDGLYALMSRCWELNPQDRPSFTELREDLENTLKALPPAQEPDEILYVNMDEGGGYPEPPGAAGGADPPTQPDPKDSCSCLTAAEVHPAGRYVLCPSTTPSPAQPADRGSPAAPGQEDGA
Outline: (§1)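 IC50 reflects the drop in TR-FRET between Eu anti-phosphotyrosine antibody and labelled peptide after a 60-minute room-temperature reaction. Buffer was 50 mM HEPES pH 7.5 with 10 mM MgCl2, 1 mM EGTA, 0.01% Brij 35 and 1 mM DTT, with ATP at Km per enzyme and EDTA quench.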

[2] = target: T2, TYRO3 (Homo sapiens, UniProt Q06418); assay: TR-FRET kinase activity assay, TYRO3; type: biochemical; conditions: ATP at Km, 60 minutes
T2 sequence (Q06418 41-890): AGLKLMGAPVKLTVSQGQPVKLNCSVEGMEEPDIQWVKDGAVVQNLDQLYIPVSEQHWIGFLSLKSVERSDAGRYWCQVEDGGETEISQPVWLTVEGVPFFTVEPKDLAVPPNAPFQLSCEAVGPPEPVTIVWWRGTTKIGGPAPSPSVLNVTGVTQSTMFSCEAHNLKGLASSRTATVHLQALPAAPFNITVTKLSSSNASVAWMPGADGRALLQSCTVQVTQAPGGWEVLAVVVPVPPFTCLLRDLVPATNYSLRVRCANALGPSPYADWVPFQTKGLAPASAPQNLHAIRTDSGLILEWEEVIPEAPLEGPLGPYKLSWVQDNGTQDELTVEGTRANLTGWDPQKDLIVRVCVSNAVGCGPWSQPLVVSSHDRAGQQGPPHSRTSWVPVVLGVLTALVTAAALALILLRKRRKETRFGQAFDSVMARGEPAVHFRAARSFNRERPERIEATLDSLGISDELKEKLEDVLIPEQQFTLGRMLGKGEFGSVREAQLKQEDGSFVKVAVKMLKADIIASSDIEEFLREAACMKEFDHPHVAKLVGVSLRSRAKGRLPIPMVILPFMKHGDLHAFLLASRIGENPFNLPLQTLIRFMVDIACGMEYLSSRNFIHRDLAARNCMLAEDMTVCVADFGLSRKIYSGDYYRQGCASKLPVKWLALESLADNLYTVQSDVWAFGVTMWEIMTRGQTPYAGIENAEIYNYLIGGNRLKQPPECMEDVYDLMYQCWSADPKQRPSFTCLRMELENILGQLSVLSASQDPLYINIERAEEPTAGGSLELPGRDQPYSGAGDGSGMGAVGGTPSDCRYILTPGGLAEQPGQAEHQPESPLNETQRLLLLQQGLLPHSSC
Outline: as §1

IC50 [1]: ≤ 100 nM
IC50 [2]: ≤ 100 nM
Structure (SMILES): COC[C@H](C)Nc1ncc2c(-c3cnn(C4COC4)c3)cc([C@@H]3CC[C@H](O)[C@H](C)C3)n2n1 [Compound 587]

Reference: patent US11040981B2, “Pyrrolotriazine compounds and methods of inhibiting TAM kinases” (Syros Pharmaceuticals, Inc., priority 2017, dated 2021)
